US20200392116A1, “SUBSTITUTED HETEROCYCLES AS c-MYC TARGETING AGENTS” (NORTHWESTERN UNIVERSITY, priority 2019, published 2020)

Test: Potency code of Table 2 (assay not stated)

SMILES	Potency code
Oc1ccc(-c2cc(C(F)(F)F)[nH]n2)c(O)c1-c1cc(C(F)(F)F)cc(C(F)(F)F)c1 [NUCC-0200495]	++++ (<10 ++++)
Cn1nc(-c2ccc(OCc3ccc(Cl)cc3)c(-c3ccc(C#N)cc3)c2O)cc1C(F)(F)F [NUCC-0198393]	+ (>40 +)
Cc1ccc(-c2c(OCc3ccc(Cl)cc3)ccc(-c3cc(C(F)(F)F)[nH]n3)c2O)cc1 [NUCC-0196344]	+++ (10-30 +++)
Cn1nc(C(F)(F)F)cc1-c1ccc(OCCCNC(=O)OC(C)(C)C)c(-c2ccc(Cl)c(C(F)(F)F)c2)c1O [NUCC-0201657]	+ (>40 +)
Cn1nc(C(F)(F)F)cc1-c1ccc(OCc2ccc(Cl)cc2)cc1C(N)=O [NUCC-0200816]	+ (>40 +)
Cc1[nH]nc(-c2ccc(OCc3ccc(Cl)cc3)cc2O)c1Oc1ccccc1 [NUCC-0176253]	+ (>40 +)
NC(=O)c1cccc(-c2c(OCc3ccc(Cl)cc3)ccc(-c3cc(C(F)(F)F)[nH]n3)c2O)c1 [NUCC-0198401]	+ (>40 +)
COc1ccc(CCOc2ccc(-c3cc(C(F)(F)F)n(C)n3)c(O)c2-c2cc(C(F)(F)F)cc(C(F)(F)F)c2)cc1 [NUCC-0201029]	+ (>40 +)
COc1cccc(-c2c[nH]nc2-c2ccc(OCc3ccc(Cl)cc3)cc2O)c1 [NUCC-0198308]	+ (>40 +)
C#CCC(N=[N+]=[N-])C(=O)NCCCOc1ccc(-c2cc(C(F)(F)F)n(C)n2)c(O)c1-c1cncc(C(F)(F)F)c1 (centres unmarked) [NUCC-0201694]	+ (>40 +)
Oc1c(-c2cc(C(F)(F)F)n[nH]2)ccc(OCc2ccc(Cl)cc2)c1-c1ccc2c(c1)OCCO2 [NUCC-0200686]	+ (>40 +)
Cn1nc(C(F)(F)F)c(Br)c1-c1ccc(OCc2ccc(Cl)cc2)cc1C#N [NUCC-0200979]	+ (>40 +)
Oc1c(-c2cc(C(F)(F)F)[nH]n2)ccc(OCc2ccc(Cl)cc2)c1Cc1ccccc1Cl [NUCC-0200490]	+ (>40 +)
NC(=O)c1cc(-c2ccc(Nc3ccc(Cl)cc3)cc2O)n[nH]1 [NUCC-0200677]	+ (>40 +)
COc1cccc(COc2ccc(-c3nn(C)cc3Oc3cc(C)ccc3C)c(O)c2)c1 [NUCC-0196289]	+ (>40 +)
Cn1nc(C(F)(F)F)cc1-c1ccc(OCc2ccc(Cl)cc2)c(-c2cccc(C(F)(F)F)c2)c1O [NUCC-0200974]	+ (>40 +)
CCc1ccc(Oc2c(-c3ccc(OCCc4cccc(C(F)(F)F)c4)cc3O)n[nH]c2C(F)(F)F)cc1 [NUCC-0176245]	++ (30-40 ++)
Cn1nc(C(F)(F)F)cc1-c1ccc(OCc2ccc(Cl)cc2)c(-c2cncc(C#N)c2)c1O [NUCC-0201632]	+++ (10-30 +++)
Cn1cc(-c2ccc(NCc3ccc(Cl)cc3)cn2)c(C(F)(F)F)n1 [NUCC-0200742]	+ (>40 +)
Cn1nc(C(F)(F)F)cc1-c1ccc(NC(=O)c2ccc(Cl)cc2)cc1O [NUCC-0200817]	+ (>40 +)
Oc1c(-c2cc(C(F)(F)F)n[nH]2)ccc(OCc2ccc(F)cc2)c1-c1cc(C(F)(F)F)cc(C(F)(F)F)c1 [NUCC-0201033]	+ (>40 +)
Cc1ccc(-c2cn(C)nc2-c2ccc(OCc3ccc(Cl)cc3)cc2O)cc1 [NUCC-0196346]	+ (>40 +)
C#CCC(N=[N+]=[N-])C(=O)Nc1ccc(COc2ccc(-c3cc(C(F)(F)F)n(C)n3)c(O)c2-c2cncc(C(F)(F)F)c2)cc1 (centres unmarked) [NUCC-0201699]	+ (>40 +)
CCc1ccc(Oc2c(-c3ccc(Nc4ccc(Cl)cc4)cc3O)n[nH]c2C(F)(F)F)cc1 [NUCC-0200680]	+ (>40 +)
Cn1nc(C(F)(F)F)cc1-c1ccc(OCc2ccc(Cl)cc2)c(-c2cccc(C(N)=O)c2)c1O [NUCC-0198402]	+ (>40 +)

SMILES	Potency code
Cn1nc(-c2ccc(OCc3ccc(Cl)cc3)c(-c3ccc(C(F)(F)F)cc3)c2O)cc1C(F)(F)F [NUCC-0200727]	+ (>40 +)
CCc1ccc(Oc2c(-c3ccc(OCc4ccc(OC)cc4)cc3O)nn(C)c2C(F)(F)F)cc1 [NUCC-0196358]	+ (>40 +)
Cn1nc(-c2ccc(OCc3ccc(Cl)cc3)cc2O)c(-c2ccccc2)c1C(F)(F)F [NUCC-0198297]	+ (>40 +)
Nc1ccc(-c2cc(C(F)(F)F)[nH]n2)c(O)c1 [NUCC-0200497]	+ (>40 +)
N#Cc1cc(-c2ccc(Nc3ccc(Cl)cc3)cc2O)n[nH]1 [NUCC-0200678]	+ (>40 +)
COc1ccc(-c2c(C)nn(C)c2-c2ccc(OCc3ccc(Cl)cc3)cc2O)cc1 [NUCC-0198306]	+ (>40 +)
CCc1ccc(Oc2c(-c3ccc(OCc4cccc(Cl)c4)cc3O)nn(C)c2C(F)(F)F)cc1 [NUCC-0196296]	+ (>40 +)
Cc1ccc(-c2c(C(F)(F)F)n[nH]c2-c2cc(OCc3ccc(Cl)cc3)ccc2O)cc1 [NUCC-0200572]	+ (>40 +)
Cn1nc(C(F)(F)F)cc1-c1ccc(OCc2ccc(Cl)cc2)cc1O [NUCC-0198412]	+ (>40 +)
Oc1ccc(OCc2ccc(Cl)cc2)cc1-c1[nH]nc(C(F)(F)F)c1-c1ccc(F)cc1 [NUCC-0200575]	++++ (<10 ++++)
Cc1cc(C)cc(-c2c[nH]nc2-c2ccc(OCc3ccc(Cl)cc3)cc2O)c1 [NUCC-0198352]	+ (>40 +)
Cn1nc(-c2ccc(OCc3ccc([N+](=O)[O-])cc3)c(-c3cncc(C(F)(F)F)c3)c2O)cc1C(F)(F)F [NUCC-0201654]	+ (>40 +)
CCOc1ncc(C(F)(F)F)cc1-c1c(OCc2ccc(Cl)cc2)ccc(-c2cc(C(F)(F)F)n[nH]2)c1O [NUCC-0201039]	+++ (10-30 +++)
CC(C)CCOc1ccc(-c2cc(C(F)(F)F)n(C)n2)c(O)c1-c1cncc(C#N)c1 [NUCC-0201213]	++++ (<10 ++++)
C#CCC(N=[N+]=[N-])C(=O)Nc1ccc(COc2ccc(-c3cc(C(F)(F)F)nn3C)c(O)c2-c2cncc(C(F)(F)F)c2)cc1 (centres unmarked) [NUCC-0201698]	+ (>40 +)
Cc1[nH]nc(-c2ccc(OCc3ccc(F)cc3)cc2O)c1Oc1ccccc1 [NUCC-0176259]	+ (>40 +)
COc1cccc(-c2c(C(F)(F)F)nn(C)c2-c2ccc(OCc3ccc(Cl)cc3)cc2O)c1 [NUCC-0198310]	+ (>40 +)
CCCCOc1ccc(-c2cc(C(F)(F)F)n[nH]2)c(O)c1-c1cncc(C#N)c1 [NUCC-0201193]	++++ (<10 ++++)
Cn1nc(C(F)(F)F)cc1-c1ccc(OCc2ccc(Cl)cc2)c(-c2ccc(F)c(C(F)(F)F)c2)c1O [NUCC-0200735]	+ (>40 +)
CC(C)CCOc1ccc(-c2cc(C(F)(F)F)[nH]n2)c(O)c1-c1cncc(C(F)(F)F)c1 [NUCC-0201636]	+ (>40 +)
CN/N=C(\C)c1cccc(-c2c(OCc3ccc(Cl)cc3)ccc(-c3cc(C(F)(F)F)n(C)n3)c2O)c1 [NUCC-0198405]	+ (>40 +)
COc1cccc(-c2cn(C)nc2-c2ccc(OCc3ccc(Cl)cc3)cc2O)c1 [NUCC-0198326]	+ (>40 +)
N#Cc1cccc(-c2c(OCc3ccc(Cl)cc3)ccc(-c3cc(C(F)(F)F)[nH]n3)c2O)c1 [NUCC-0198398]	++++ (<10 ++++)
Cn1nc(-c2ccc(Nc3ccc4c(c3)OCO4)cc2O)cc1C(F)(F)F [NUCC-0200562]	+ (>40 +)
CCCCOc1ccc(-c2cc(C(F)(F)F)[nH]n2)c(O)c1-c1cncc(C(F)(F)F)c1 [NUCC-0201637]	+ (>40 +)
